From patent US9796711B2, “Substituted pyrazolo[3,4-b]pyridin-6-carboxylic acids and method of use” (AbbVie S.àr.l., priority 2015, dated 2017)

Key:
[1] = target: T1, ΔF508-CFTR (Homo sapiens, UniProt P13569, DEL508-508); assay: CFTR cell surface levels using HRP-tagged ΔF508-CFTR expressing CFBE cells, intrinsic corrector capacity; type: cell-based; conditions: for EC50: read-out: EC50
T1 construct: host or cells: CFBE41o-, doxycycline-inducible
Procedure, shortened: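 Here the cells express ΔF508-CFTR with horseradish peroxidase inserted in extracellular loop 4, so only rescued channel at the surface gives luminescent signal. Compounds act on their own, 20 h at the reduced temperature of 33 °C; values are percent activity relative to DMSO and a 3 μM corrector.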

[2] = target: T1, ΔF508-CFTR; assay: CFTR cell surface levels using HRP-tagged ΔF508-CFTR expressing CFBE cells, in the presence of a co-corrector; type: cell-based; conditions: HRP-tagged ΔF508-CFTR expressing CFBE cells, in the presence of 3 μM co-corrector; for EC50: read-out: EC50
Procedure, shortened: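 Cells were seeded with 0.5 μg/mL doxycycline and held 68 h at 37 °C. Test compounds plus 3 μM co-corrector (final 0.1% DMSO) were then added for 20 h at 33 °C. Washed cells received HRP substrate, and luminescence was normalized between DMSO and 3 μM co-corrector controls.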

[3] = HRP-tagged ΔF508-CFTR expressing CFBE cells, intrinsic corrector capacity (no co-corrector), 33° C., 20 hours
[4] = HRP-tagged ΔF508-CFTR CFBE41o- cells, compounds alone (intrinsic corrector capacity), 20 hours at 33° C., positive control 3 μM corrector
[5] = HRP-tagged ΔF508-CFTR CFBE41o- cells, compounds alone (intrinsic corrector capacity), 20 hours at 33° C.
[6] = HRP-tagged ΔF508-CFTR CFBE cells, compound alone (intrinsic corrector capacity), 20 hours at 33° C.

T1 sequence (P13569 with tags, fused parts or gaps DEL508-508): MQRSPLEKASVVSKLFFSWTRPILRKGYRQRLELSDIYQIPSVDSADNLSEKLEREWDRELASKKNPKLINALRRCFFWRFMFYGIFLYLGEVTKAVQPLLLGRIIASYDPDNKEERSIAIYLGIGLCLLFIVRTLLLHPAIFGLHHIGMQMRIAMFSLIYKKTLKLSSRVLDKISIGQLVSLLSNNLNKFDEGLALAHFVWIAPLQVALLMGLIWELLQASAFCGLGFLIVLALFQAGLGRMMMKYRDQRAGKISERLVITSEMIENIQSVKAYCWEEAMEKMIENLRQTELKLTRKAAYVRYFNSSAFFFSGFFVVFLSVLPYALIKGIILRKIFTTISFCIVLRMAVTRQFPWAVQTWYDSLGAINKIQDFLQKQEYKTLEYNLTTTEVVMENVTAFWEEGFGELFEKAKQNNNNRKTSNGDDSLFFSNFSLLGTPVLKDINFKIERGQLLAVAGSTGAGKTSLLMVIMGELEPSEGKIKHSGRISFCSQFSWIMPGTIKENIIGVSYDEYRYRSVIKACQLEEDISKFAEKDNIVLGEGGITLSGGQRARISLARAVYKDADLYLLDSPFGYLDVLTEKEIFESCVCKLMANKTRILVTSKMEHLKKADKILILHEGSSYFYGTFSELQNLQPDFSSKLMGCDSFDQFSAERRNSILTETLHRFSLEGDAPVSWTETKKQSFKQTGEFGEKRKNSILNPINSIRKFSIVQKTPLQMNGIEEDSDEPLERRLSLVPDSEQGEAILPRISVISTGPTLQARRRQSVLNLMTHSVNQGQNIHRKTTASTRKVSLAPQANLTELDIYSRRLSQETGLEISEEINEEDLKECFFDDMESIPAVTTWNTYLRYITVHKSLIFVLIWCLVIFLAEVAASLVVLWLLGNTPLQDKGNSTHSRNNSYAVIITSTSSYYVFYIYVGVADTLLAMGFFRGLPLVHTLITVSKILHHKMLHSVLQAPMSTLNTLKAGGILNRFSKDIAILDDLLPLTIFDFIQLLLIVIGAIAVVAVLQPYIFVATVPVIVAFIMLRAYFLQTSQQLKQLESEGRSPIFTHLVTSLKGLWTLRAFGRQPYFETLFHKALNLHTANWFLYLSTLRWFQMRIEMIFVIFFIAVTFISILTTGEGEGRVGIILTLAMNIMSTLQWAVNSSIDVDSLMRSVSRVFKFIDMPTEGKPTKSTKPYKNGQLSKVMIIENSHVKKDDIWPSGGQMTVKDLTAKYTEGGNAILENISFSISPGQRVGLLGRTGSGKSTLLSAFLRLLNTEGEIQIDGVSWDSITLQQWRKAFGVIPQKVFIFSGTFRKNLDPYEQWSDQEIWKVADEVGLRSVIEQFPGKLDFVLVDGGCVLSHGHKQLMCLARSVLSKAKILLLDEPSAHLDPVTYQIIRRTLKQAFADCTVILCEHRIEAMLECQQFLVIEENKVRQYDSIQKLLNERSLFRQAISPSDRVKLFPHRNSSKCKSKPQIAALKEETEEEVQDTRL

## CC1(F)CN(c2cc(C(=O)O)nc3c2c(C2CCC2)nn3-c2ccccc2)C1 [compound 451, 3-cyclobutyl-4-(3-fluoro-3-methylazetidin-1-yl)-1-phenyl-1H-pyrazolo[3,4-b]pyridine-6-carboxylic acid]
[1]; [3]
  % Activation: 71.425%
  EC50: 1290 nM
[2]
  % Activation: 234.95%
  EC50: 874 nM

## Cc1nn(-c2ccccc2)c2nc(C(=O)O)cc(N3CCC(F)CC3)c12 [compound 297, 4-(4-fluoropiperidin-1-yl)-3-methyl-1-phenyl-1H-pyrazolo[3,4-b]pyridine-6-carboxylic acid]
[1]; [4]
  % Activation: 50.78%
[1]; [5]
  EC50: 2230 nM
[2]
  % Activation: 184.07%
  EC50: 3340 nM

## O=C1CCC[C@H]2CN(c3cc(C(=O)O)nc4c3c(C3CCC3)nn4-c3ccccc3)C[C@H]2N1 [compound 505, 3-cyclobutyl-4-[(5aS,8aS)-2-oxooctahydropyrrolo[3,4-b]azepin-7(1H)-yl]-1-phenyl-1H-pyrazolo[3,4-b]pyridine-6-carboxylic acid]
[1]; [3]
  % Activation: -6.616%
  EC50: > 10000 nM
[2]
  % Activation: 118.3%
  EC50: > 10000 nM

## CC(C)c1nn([C@@H]2CCC[C@@H](OCc3ccccc3)C2)c2nc(C(=O)O)cc(-c3ccc(N4CCOCC4)cc3)c12 [compound 163, 1-[(1R,3R)-3-(benzyloxy)cyclohexyl]-4-[4-(morpholin-4-yl)phenyl]-3-(propan-2-yl)-1H-pyrazolo[3,4-b]pyridine-6-carboxylic acid]
[1]; [4]
  % Activation: 232.43%
[1]; [5]
  EC50: 525 nM
[2]
  % Activation: 554.5%
  EC50: 423 nM

## Cc1nn(-c2ccccc2)c2nc(C(=O)O)cc(OCC3(C)CC(F)(F)C3)c12 [compound 386, 4-[(3,3-difluoro-1-methylcyclobutyl)methoxy]-3-methyl-1-phenyl-1H-pyrazolo[3,4-b]pyridine-6-carboxylic acid]
[1]; [4]
  % Activation: 64.285%
[1]; [5]
  EC50: 1310 nM
[2]
  % Activation: 250.65%
  EC50: 1440 nM

## N#CC1CCN(c2cc(C(=O)O)nc3c2c(C2CCC2)nn3-c2ccccc2)CC1 [compound 410, 4-(4-cyanopiperidin-1-yl)-3-cyclobutyl-1-phenyl-1H-pyrazolo[3,4-b]pyridine-6-carboxylic acid]
[1]; [3]
  % Activation: 155.63%
  EC50: 557 nM
[2]
  % Activation: 317.5%
  EC50: 228 nM

## O=C(O)c1cc(N2CCC(CN3CCCOCC3)CC2)c2c(C3CCC3)nn(-c3ccccc3)c2n1 [compound 834, 3-cyclobutyl-4-{4-[(1,4-oxazepan-4-yl)methyl]piperidin-1-yl}-1-phenyl-1H-pyrazolo[3,4-b]pyridine-6-carboxylic acid]
[1]; [3]
  % Activation: 227.9%
  EC50: 241 nM
[2]
  % Activation: 403%
  EC50: 114 nM

## O=C(O)c1cc(N2CCCCC2)c2c(C3CCC3)nn(-c3ccccc3)c2n1 [compound 408, 3-cyclobutyl-1-phenyl-4-(piperidin-1-yl)-1H-pyrazolo[3,4-b]pyridine-6-carboxylic acid]
[1]; [3]
  % Activation: 141.15%
  EC50: 932 nM
[2]
  % Activation: 346.95%
  EC50: 617 nM

## COCC1CCN(c2cc(C(=O)O)nc3c2c(C(C)C)nn3CC(C)C)CC1 [compound 548, 4-[4-(methoxymethyl)piperidin-1-yl]-1-(2-methylpropyl)-3-(propan-2-yl)-1H-pyrazolo[3,4-b]pyridine-6-carboxylic acid]
[1]; [3]
  % Activation: 88.93%
  EC50: 2540 nM
[2]
  % Activation: 306%
  EC50: 3330 nM

## CN1CCN(Cc2cc(C(=O)O)nc3c2c(C2CCC2)nn3-c2ccc(F)cc2)CC1 [compound 858, 3-cyclobutyl-1-(4-fluorophenyl)-4-[(4-methylpiperazin-1-yl)methyl]-1H-pyrazolo[3,4-b]pyridine-6-carboxylic acid]
[1]; [3]
  % Activation: 29.24%
[2]
  % Activation: 168.6%
  EC50: 3180 nM

## CC(C)c1nn(-c2ccc(F)c(F)c2)c2nc(C(=O)O)cc(-c3ccc(N4CCOCC4)cc3)c12 [compound 243, 1-(3,4-difluorophenyl)-4-[4-(morpholin-4-yl)phenyl]-3-(propan-2-yl)-1H-pyrazolo[3,4-b]pyridine-6-carboxylic acid]
[1]; [4]
  % Activation: 224.73%
[1]; [5]
  EC50: 660 nM
[2]
  % Activation: 402.73%
  EC50: 408 nM

## Cc1cccc(-n2nc(C(C)C)c3c(N4CCCC4)cc(C(=O)O)nc32)c1 [compound 173, 1-(3-methylphenyl)-3-(propan-2-yl)-4-(pyrrolidin-1-yl)-1H-pyrazolo[3,4-b]pyridine-6-carboxylic acid]
[1]; [4]
  % Activation: 182.82%
[1]; [5]
  EC50: 2950 nM
[2]
  % Activation: 380.52%
  EC50: 2530 nM

## Cc1nn(-c2ccccc2)c2nc(C(=O)O)cc(-c3ccc(N4C[C@@H](O)[C@H](O)C4)cc3)c12 [compound 116, 4-{4-[(3R,4R)-3,4-dihydroxypyrrolidin-1-yl]phenyl}-3-methyl-1-phenyl-1H-pyrazolo[3,4-b]pyridine-6-carboxylic acid]
[1]; [4]
  % Activation: 81.72%
[1]; [5]
  EC50: 3340 nM
[2]
  % Activation: 262.7%
  EC50: 3340 nM

## COc1cc(F)cc(-n2nc(C3CCC3)c3c(N4CCC(N5CCOCC5)CC4)cc(C(=O)O)nc32)c1 [compound 913, 3-cyclobutyl-1-(3-fluoro-5-methoxyphenyl)-4-[4-(morpholin-4-yl)piperidin-1-yl]-1H-pyrazolo[3,4-b]pyridine-6-carboxylic acid]
[1]; [6]
  % Activation: 326.3%
  EC50: 1150 nM
[2]
  % Activation: 531.4%
  EC50: 163 nM

## CC(C)c1nn(-c2cccc(C(F)(F)F)c2)c2nc(C(=O)O)cc(-c3ccc(N(C)C4CCOCC4)nc3)c12 [compound 287, 4-{6-[methyl(oxan-4-yl)amino]pyridin-3-yl}-3-(propan-2-yl)-1[3-(trifluoromethyl)phenyl]-1H-pyrazolo[3,4-b]pyridine-6-carboxylic acid]
[1]; [4]
  % Activation: 234.95%
[1]; [5]
  EC50: 535 nM
[2]
  % Activation: 464.35%
  EC50: 429 nM

## CC1(C)CC(c2nn(-c3ccccc3)c3nc(C(=O)O)cc(-c4ccc(N5CCC(C#N)CC5)nc4)c23)C1 [compound 430, 4-[6-(4-cyanopiperidin-1-yl)pyridin-3-yl]-3-(3,3-dimethylcyclobutyl)-1-phenyl-1H-pyrazolo[3,4-b]pyridine-6-carboxylic acid]
[1]; [3]
  % Activation: 175.73%
  EC50: 373 nM
[2]
  % Activation: 342.17%
  EC50: 243 nM

## CC(C)N1CCN(c2ccc(-c3cc(C(=O)O)nc4c3c(C3CCC3)nn4C3CCCCC3)cn2)CC1 [compound 865, 3-cyclobutyl-1-cyclohexyl-4-{6-[4-(propan-2-yl)piperazin-1-yl]pyridin-3-yl}-1H-pyrazolo[3,4-b]pyridine-6-carboxylic acid]
[1]; [3]
  % Activation: 146.9%
  EC50: 439 nM
[2]
  % Activation: 306.8%
  EC50: 1120 nM

## COC1CN(C2CCN(c3cc(C(=O)O)nc4c3c(C3CCC3)nn4-c3ccc(F)cc3)CC2)C1 [compound 873, 3-cyclobutyl-1-(4-fluorophenyl)-4-[4-(3-methoxyazetidin-1-yl)piperidin-1-yl]-1H-pyrazolo[3,4-b]pyridine-6-carboxylic acid]
[1]; [3]
  % Activation: 139.8%
  EC50: 3340 nM
[2]
  % Activation: 332.45%
  EC50: 1850 nM
